Consider 11 compounds from EP4745138A1, “THIO-GLUTARIMIDO ISOINDOLINONE DERIVATIVE, BIFUNCTIONAL PROTEIN DEGRADER CONTAINING SAME, AND USES THEREOF” (Gluetacs Therapeutics (Shanghai) Co., Ltd., priority 2023, dated 2025).

Like-named read-outs stand apart in the source and are kept apart here.

For test [1], the target named is T1, human Cereblon WT GST-tagged protein (Homo sapiens, UniProt Q96SW2).
T1 construct: purchased CISBIO 64BDCRBNPEH
Description: CRBN-binding affinity, HTRF (CEREBLON BINDING kit). Conditions: for inhibition at 0.5 µM: read-out: Inhibition Rate at 0.5 µM (%); for inhibition at 2 µM: read-out: Inhibition Rate at 2 µM (%). Summed up:
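Compounds are serially diluted in diluent #9 (1X) and added at final 2 µM and 0.5 µM. GST-tagged wild-type Cereblon is added next, followed by premixed thalidomide-red reagent and anti-GST Eu antibody, and HTRF signal is measured.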

For test [2], the system named is MV-4-11. Put plainly: Tumor cell proliferation inhibition (CellTiter-Meiluncell Luminescent Cell Viability Assay). Type of test: cell-based. Conditions: Homo sapiens, 96 hours, Table I-12, FAK inhibitors; for inhibition at 0.01 µM: MV4-11, 10 nM, read-out: Inhibition Rate at 10 nM (%); for inhibition at 0.5 µM: MV4-11, 500 nM, read-out: Inhibition Rate at 500 nM (%). Put shortly:
(§1)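 Following overnight seeding, tumor cells received serial compound dilutions to final levels that included 10 nM and 500 nM. Viability was assessed by luminescence at the end of the specified exposure time. Cultures were kept at 37°C with 5% CO2.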

In test [3] the target is T2, FAK (Homo sapiens, UniProt Q05397).
T2 construct: endogenous in cells; host or cells: A549
Put plainly: Western blot, target protein degradation in A549 Cell. Conditions: substrate protein remaining %, treated at 500 nM and 50 nM, 24 hours. Type of test: cell-based. As to the method: (§2) Conventional Western blot assay was performed to evaluate the effects of the compounds of the present disclosure on the expression of target proteins in cells.
(§3) (1) Cell Seeding and Protein Harvesting: The selected cells were processed according to the cell seeding procedure and protein harvesting procedure in Table II-2. Table II-2 Cell Seeding and Protein Harvesting Procedures
(§4) (2) To the collected supernatant, 5X SDS sample loading buffer was added, followed by denaturation at 95°C for 5 minutes. The denatured samples were then separated by SDS-PAGE electrophoresis on a polyacrylamide gel. Proteins were transferred to a nitrocellulose membrane (0.45 µm NC membrane), blocked with blocking buffer at room temperature for 1 hour, and subjected to antibody incubation and development procedures according to the antibody manufacturer's instructions (Cell Signaling Technology).
(§5) Half-Maximal Degradation Concentration value (the drug concentration required for degrading proteins by 50%, abbreviated as DC50) reads method: comparing the grayscale values of Western blot bands from drug-treated samples with those from blank DMSO-treated controls, and identifying the drug concentration range at which the grayscale value is half that of the DMSO-treated control bands.
(§6) DC50 values can be calculated using ImageJ software to measure grayscale values of Western blot bands from drug-treated samples. The concentration-response curve is fitted to estimate the drug concentration corresponding to half the grayscale value.
(§7) Target protein remaining (%) refers to the percentage of target protein remaining in cells after treatment with protein degrader compounds.
(§8) Calculation method for target protein remaining (%): Use ImageJ software to measure grayscale values of Western blot bands from drug (protein degrader)-treated samples. The grayscale value of drug-treated bands is divided by that of internal control protein bands, and the resulting quotient is normalized to obtain the relative percentage of remaining target protein after protein degrader treatment. Target protein degradation rate(%) = 1−target protein remaining(%). [formula]

The subject of test [4] is SW620. Put plainly: Tumor cell proliferation inhibition (CellTiter-Meiluncell Luminescent Cell Viability Assay). Conditions: Homo sapiens, 96 hours; for inhibition at 0.01 µM: SW-620, 10 nM, read-out: Inhibition Rate at 10 nM (%); for inhibition at 0.5 µM: SW-620, 500 nM, read-out: Inhibition Rate at 500 nM (%). Type of test: cell-based. Summed up:
as §1

For test [5], the system named is MM.1S. The description is as above. Type of test: cell-based. Conditions: Homo sapiens, MM1.S, MM.1S, 96 hours, Table I-12, FAK inhibitors; for inhibition at 0.01 µM: 10 nM, read-out: Inhibition Rate at 10 nM (%); for inhibition at 0.5 µM: 500 nM, read-out: Inhibition Rate at 500 nM (%). Summed up: as §1
The test system of test [6] is CFPAC-1. The description is as above. Type of test: cell-based. Conditions: Homo sapiens, 96 hours, Table I-10, BCR-ABL inhibitors. Put shortly:
(§9)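 Cells were grown at 37°C under 5% CO2, seeded into 96-well plates, and dosed with compound on the next day. After a set treatment period, viability was read by luminescence with the CellTiter-Meiluncell reagent and IC50 values were derived. Final compound concentrations included 500 nM and 10 nM.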

In test [7] the test system is TMD8. Described as above. Type of test: cell-based. Conditions: Homo sapiens, 96 hours; for inhibition at 0.01 µM: 10 nM, read-out: Inhibition Rate at 10 nM (%); for inhibition at 0.5 µM: 500 nM, read-out: Inhibition Rate at 500 nM (%). Summed up: as §9
In test [8] the test system is EGFR. Put plainly: Western blot, target protein degradation in H1975 Cell. Conditions: substrate protein remaining %, treated at 500 nM and 50 nM, 24 hours. Format: cell-based, Human. As to the method:
as §2, §3, §4, §5, §6, §7, §8

T2 sequence (Q05397 whole entry): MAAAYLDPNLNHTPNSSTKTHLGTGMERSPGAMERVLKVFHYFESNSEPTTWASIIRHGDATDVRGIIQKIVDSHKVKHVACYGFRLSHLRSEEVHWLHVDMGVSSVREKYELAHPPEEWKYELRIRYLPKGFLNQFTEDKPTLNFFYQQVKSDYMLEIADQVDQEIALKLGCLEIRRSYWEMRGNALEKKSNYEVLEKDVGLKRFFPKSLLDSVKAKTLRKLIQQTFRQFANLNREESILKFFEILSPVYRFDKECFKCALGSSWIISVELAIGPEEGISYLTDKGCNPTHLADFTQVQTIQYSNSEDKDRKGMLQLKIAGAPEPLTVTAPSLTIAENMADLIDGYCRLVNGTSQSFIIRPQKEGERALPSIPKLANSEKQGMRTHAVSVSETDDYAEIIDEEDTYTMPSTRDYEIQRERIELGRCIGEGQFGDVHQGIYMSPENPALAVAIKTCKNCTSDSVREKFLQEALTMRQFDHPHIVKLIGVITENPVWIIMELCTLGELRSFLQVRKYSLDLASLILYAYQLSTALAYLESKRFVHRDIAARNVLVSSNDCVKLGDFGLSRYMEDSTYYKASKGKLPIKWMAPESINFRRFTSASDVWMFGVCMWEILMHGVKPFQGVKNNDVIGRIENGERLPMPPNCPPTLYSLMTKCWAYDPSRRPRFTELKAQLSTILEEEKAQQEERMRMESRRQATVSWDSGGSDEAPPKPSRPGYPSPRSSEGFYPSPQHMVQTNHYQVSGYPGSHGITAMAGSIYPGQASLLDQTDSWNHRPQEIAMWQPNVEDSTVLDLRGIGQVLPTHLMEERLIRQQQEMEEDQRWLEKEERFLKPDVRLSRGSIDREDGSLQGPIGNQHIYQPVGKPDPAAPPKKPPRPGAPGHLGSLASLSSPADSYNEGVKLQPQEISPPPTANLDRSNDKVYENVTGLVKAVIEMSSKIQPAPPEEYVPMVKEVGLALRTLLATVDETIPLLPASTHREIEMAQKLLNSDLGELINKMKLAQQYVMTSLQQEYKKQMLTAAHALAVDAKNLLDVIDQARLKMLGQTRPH
T1 sequence (Q96SW2 whole entry): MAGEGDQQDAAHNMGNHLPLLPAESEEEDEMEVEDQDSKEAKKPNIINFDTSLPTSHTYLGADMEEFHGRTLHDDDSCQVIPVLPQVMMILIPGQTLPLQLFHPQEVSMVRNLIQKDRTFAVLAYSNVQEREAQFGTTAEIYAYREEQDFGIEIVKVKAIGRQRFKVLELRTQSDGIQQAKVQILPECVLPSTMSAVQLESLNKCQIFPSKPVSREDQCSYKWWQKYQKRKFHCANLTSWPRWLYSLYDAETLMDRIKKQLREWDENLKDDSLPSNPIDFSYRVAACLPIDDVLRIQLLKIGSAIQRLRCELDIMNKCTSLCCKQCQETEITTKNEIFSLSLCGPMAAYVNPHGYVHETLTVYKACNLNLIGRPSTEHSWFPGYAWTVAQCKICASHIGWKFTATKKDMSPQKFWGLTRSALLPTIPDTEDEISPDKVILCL

With `CN(c1nccnc1CNc1nc(Nc2ccc(N3CCN(Cc4cccc5c4CN(C4CCC(=O)NC4=O)C5=S)CC3)cc2)ncc1C(F)(F)F)S(C)(=O)=O` (centres unmarked) [GT-08783, N-(3-(((2-((4-(4-((2-(2,6-dioxopiperidin-3-yl)-1-thioxoisoindolin-4-yl)methyl)piperazin-1-yl)phenyl)amino)-5-(trifluoromethyl)pyrimidin-4-yl)amino)methyl)pyrazin-2-yl)-N-methylmethanesulfonamide], in test [1], the inhibition at 0.5 µM is 40 to 53% and the inhibition at 2 µM is 60 to 80%. In addition, in test [2], the inhibition at 0.01 µM lay within 20 to 30% and the inhibition at 0.5 µM is 70 to 80%. For the same compound, the “Degradation of substrate protein FAK” value in test [3] is “A (0% ≤ substrate protein remaining % ≤ 80%)”.
For `CN(c1nccnc1CNc1nc(Nc2ccc(N3CCN(Cc4ccc5c(c4)CN(C4CCC(=O)NC4=O)C5=S)CC3)cc2)ncc1C(F)(F)F)S(C)(=O)=O` (centres unmarked) [GT-08779, N-(3-(((2-((4-(4-((2-(2,6-dioxopiperidin-3-yl)-1-thioxoisoindolin-5-yl)methyl)piperazin-1-yl)phenyl)amino)-5-(trifluoromethyl)pyrimidin-4-yl)amino)methyl)pyrazin-2-yl)-N-methylmethanesulfonamide], in test [1], the inhibition at 0.5 µM fell in the range of 30 to 40% and the inhibition at 2 µM lay within 80 to 100%. Also, in test [2], the inhibition at 0.01 µM lay in the range of 10 to 20% and the inhibition at 0.5 µM fell in the range of 70 to 80%. For the same compound, the “Degradation of substrate protein FAK” value in test [3] is given as “A (0% ≤ substrate protein remaining % ≤ 80%)”.
Turning to `CS(=O)(=O)c1cccc(CNc2nc(Nc3ccc(N4CCN(Cc5ccc6c(c5)CN(C5CCC(=O)NC5=O)C6=S)CC4)cc3)ncc2C(F)(F)F)c1` (centres unmarked) [GT-08780, 3-(5-((4-(4-((4-((3-(methylsulfonyl)benzyl)amino)-5-(trifluoromethyl)pyrimidin-2-yl)amino)phenyl)piperazin-1-yl)methyl)-1-thioxoisoindolin-2-yl)piperidine-2,6-dione], the inhibition at 0.01 µM was in the range of 10 to 20% in test [4] (Table I-12, FAK inhibitors); 20 to 30% in test [5]; 20 to 30% in test [2]. Moreover, the inhibition at 0.5 µM was in the range of 40 to 50% in test [4] (Table I-12, FAK inhibitors); 40 to 50% in test [5]; 70 to 80% in test [2]. For the same compound, the “Degradation of substrate protein FAK” value in test [3] is “A (0% ≤ substrate protein remaining % ≤ 80%)”.
Consider `CN(c1cccc(CNc2nc(Nc3ccc(N4CCN(Cc5ccc6c(c5)CN(C5CCC(=O)NC5=O)C6=S)CC4)cc3)ncc2C(F)(F)F)c1)S(C)(=O)=O` (centres unmarked) [GT-08781, N-(3-(((2-((4-(4-((2-(2,6-dioxopiperidin-3-yl)-1-thioxoisoindolin-5-yl)methyl)piperazin-1-yl)phenyl)amino)-5-(trifluoromethyl)pyrimidin-4-yl)amino)methyl)phenyl) -N-methylmethanesulfonamide], for which, in test [1], the inhibition at 0.5 µM was in the range of 53 to 60% and the inhibition at 2 µM was in the range of 60 to 80%. In test [2], the inhibition at 0.01 µM lay within 5 to 10% and the inhibition at 0.5 µM is 60 to 70%. In addition, in test [3], the “Degradation of substrate protein FAK” value is “A (0% ≤ substrate protein remaining % ≤ 80%)”.
As to `Cc1ccc(C(=O)Nc2ccc(CN3CCN(Cc4ccc5c(c4)C(=S)N(C4CCC(=O)NC4=O)C5)CC3)c(C(F)(F)F)c2)cc1C#Cc1cnc2cccnn12` (centres unmarked) [GT-09439, N-(4-((4-((2-(2,6-dioxopiperidin-3-yl)-3-thioxoisoindolin-5-yl)methyl)piperazin-1-yl)methyl)-3-(trifluoromethyl)phenyl)-3-(imidazo[1,2-b]pyridazin-3-ylethynyl)-4-methylbenzamide], in test [6] (10 nM, read-out: Inhibition Rate at 10 nM (%)), the inhibition at 0.01 µM was in the range of 5 to 10%. The inhibition at 0.5 µM in test [6] (500 nM, read-out: Inhibition Rate at 500 nM (%)) was 60 to 70%.
Take `Nc1ncnc2c1c(-c1ccc(Oc3ccccc3)cc1)nn2C1CCN(Cc2ccc3c(c2)CN(C2CCC(=O)NC2=O)C3=S)CC1` (centres unmarked) [GT-09436, 3-(5-((4-(4-amino-3-(4-phenoxyphenyl)-1H-pyrazolo[3,4-d]pyrimidin-1-yl)piperidin-1-yl)methyl)-1-thioxoisoindolin-2-yl)piperidine-2,6-dione]: in test [1], the inhibition at 0.5 µM lay in the range of 40 to 53% and the inhibition at 2 µM is 80 to 100%. In test [4] (Table I-4, BTK inhibitors), the inhibition at 0.01 µM lay in the range of 70 to 80% and the inhibition at 0.5 µM lay in the range of 80 to 100%. Besides, in test [7] (Table I-4, BTK inhibitors), the inhibition at 0.01 µM lay within 15 to 20% and the inhibition at 0.5 µM fell in the range of 80 to 100%.
As to `C=CC(=O)N1CCC[C@@H](n2nc(-c3ccc(Oc4ccccc4)cc3)c3c(N)ncnc32)C1` [ibrutinib, Ibrutinib, reference compound], in test [1], the inhibition at 0.5 µM lay in the range of 0 to 10% and the inhibition at 2 µM was 10 to 20%. In test [4] (Table I-4, BTK inhibitors), the inhibition at 0.01 µM is -5 to 0% and the inhibition at 0.5 µM was 0 to 5%. In test [7] (Table I-4, BTK inhibitors), the inhibition at 0.01 µM is -5 to 0% and the inhibition at 0.5 µM was in the range of 30 to 40%.
`CC(C)(C)c1cnc(CSc2cnc(NC(=O)C3CCN(Cc4ccc5c(c4)CN(C4CCC(=O)NC4=O)C5=S)CC3)s2)o1` (centres unmarked) [GT-09435, N-(5-(((5-(tert-butyl)oxazol-2-yl)methyl)thio)thiazol-2-yl)-1-((2-(2,6-dioxopiperidin-3-yl)-1-thioxoisoindolin-5-yl)methyl)piperidine-4-carboxamide]: in test [1], the inhibition at 0.5 µM lay within 40 to 53% and the inhibition at 2 µM lay in the range of 80 to 100%. Moreover, in test [7] (Table I-7, CDK9 inhibitors), the inhibition at 0.01 µM fell in the range of 0 to 5% and the inhibition at 0.5 µM lay in the range of 70 to 80%.
For the compound `C=CC(=O)Nc1cc(Nc2nccc(-c3cn(C)c4ccccc34)n2)c(OC)cc1N(C)CCN(C)C` [Osimertinib, reference compound], the “Degradation of substrate protein EGFR” value in test [8] is “No degradation”.
For `CN(c1cccc(CNc2nc(Nc3ccc(N4CCN(Cc5cccc6c5CN(C5CCC(=O)NC5=O)C6=S)CC4)cc3)ncc2C(F)(F)F)c1)S(C)(=O)=O` (centres unmarked) [GT-08883, N-(3-(((2-((4-(4-((2-(2,6-dioxopiperidin-3-yl)-1-thioxoisoindolin-4-yl)methyl)piperazin-1-yl)phenyl)amino)-5-(trifluoromethyl)pyrimidin-4-yl)amino)methyl)phenyl) -N-methylmethanesulfonamide], the inhibition at 0.5 µM was 40 to 53% in test [1]; 40 to 50% in test [4] (Table I-12, FAK inhibitors); 40 to 50% in test [5]; 70 to 80% in test [2]. The inhibition at 2 µM in test [1] fell in the range of 53 to 60%. The inhibition at 0.01 µM fell in the range of 30 to 40% in test [4] (Table I-12, FAK inhibitors); 10 to 20% in test [5]; 20 to 30% in test [2]. For the same compound, the “Degradation of substrate protein FAK” value in test [3] is “A (0% ≤ substrate protein remaining % ≤ 80%)”.
In the case of `CS(=O)(=O)c1cccc(CNc2nc(Nc3ccc(N4CCN(Cc5cccc6c5CN(C5CCC(=O)NC5=O)C6=S)CC4)cc3)ncc2C(F)(F)F)c1` (centres unmarked) [GT-08784, 3-(4-((4-(4-((4-((3-(methylsulfonyl)benzyl)amino)-5-(trifluoromethyl)pyrimidin-2-yl)amino)phenyl)piperazin-1-yl)methyl)-1-thioxoisoindolin-2-yl)piperidine-2,6-dione], in test [1], the inhibition at 0.5 µM lay within 53 to 60% and the inhibition at 2 µM lay in the range of 80 to 100%. The “Degradation of substrate protein FAK” value in test [3] is recorded as “A (0% ≤ substrate protein remaining % ≤ 80%)”.
